Measurements from patent US20260021186A1, “Fatty Acid-D-Amino Acid Peptides Conjugates as Anaplerotic Compounds for Use in Treating Propionic Acidemia, Methylmalonic Acidurias, and Energy Metabolic Disorders” (University of Pittsburgh - Of the Commonwealth System of …, priority 2022, published 2026).

Tested on: HEK293 PCCA−/− cells
Experiment: Propionyl-CoA alternative metabolites excreted in culture media (mass spectrometry)
Assay type: cell-based, human
Details: 72 hours; relative to untreated cells
Protocol: FIGS. 14A-14D are graphs showing the quantitation of propionyl-CoA alternative metabolites excreted in the media of FB859 patient and HEK293 PCCA^−/− cultured cells treated with PMA007 or PMA010 for 72 hours: propionylcarnitine (C3-carnitine; FIG. 14A), propionylglycine (C3-glycine; FIG. 14B), hydroxypropionylcarnitine (C3OH-carnitine; FIG. 14C), and hydroxypropionyl glycine (C3OH-glycine, FIG. 14D). Data are presented as percentage to untreated cells. In media of Fb859 cells, the control (Cntl, 0 μM) treatment with glucose and pyruvate, media propionylcarnitine was 0.17 μM, while in the untreated control, which had no glucose or pyruvate, and stripped FBS (no fat) included in the media, propionylcarnitine was 0.433 μM.
Acylcarnitine levels determination: Media from control, Fb826, and treated and untreated patient, Fb859, cells were collected from either the immunohistochemistry cultures or the Seahorse oxygen consumption 96-well plate assays and analyzed for the levels of short chain acylcarnitines plus propionylglycine and hydroxypropionylglycine using a triple quadrupole API4000 mass spectrometer (AB Sciex™, Framingham, MA) equipped with a ExionLC™ 100 HPLC system (Shimadzu Scientific Instruments™, Columbia, MD) as outlined as previously published.

C[C@@H](NC(=O)CCCCC(=O)O)C(=O)N[C@H](Cc1c[nH]cn1)C(=O)O [PMA010, 6-(((R)-1-(((R)-1-carboxy-2-(1H-imidazol-4-yl)ethyl)amino)-1-oxopropan-2-yl)amino)-6-oxohexanoic acid]
reduction in hydroxypropionyl glycine in media: 80%
reduction in propionylcarnitine in media: 59%
reduction in propionylglycine in media: 41%
